Assay results: US4148896A, “Antidepressant combination” (E. I. Du Pont de Nemours and Company, priority 1978, dated 1979)
Where two headings read alike, the source gives them in different places.

What was measured:
mouse brain MAO = molecular target: T1, mouse brain MAO (Mus musculus, UniProt Q64133); settings: for % INHIBITION: substrate 5 HT
T1 sequence (Q64133 1-526): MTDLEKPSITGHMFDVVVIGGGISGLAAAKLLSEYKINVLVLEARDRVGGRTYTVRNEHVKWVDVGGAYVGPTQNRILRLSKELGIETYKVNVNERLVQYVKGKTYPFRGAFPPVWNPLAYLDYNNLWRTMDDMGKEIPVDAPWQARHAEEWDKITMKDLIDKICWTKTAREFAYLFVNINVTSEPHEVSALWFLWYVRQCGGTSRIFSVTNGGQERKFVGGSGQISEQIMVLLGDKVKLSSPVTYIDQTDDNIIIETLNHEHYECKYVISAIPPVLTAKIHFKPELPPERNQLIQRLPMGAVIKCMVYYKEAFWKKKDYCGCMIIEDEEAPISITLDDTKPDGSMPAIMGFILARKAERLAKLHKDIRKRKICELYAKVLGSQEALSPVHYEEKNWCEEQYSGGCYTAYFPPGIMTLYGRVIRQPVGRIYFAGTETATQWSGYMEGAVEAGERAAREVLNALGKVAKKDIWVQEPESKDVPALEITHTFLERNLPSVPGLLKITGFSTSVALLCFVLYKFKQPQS

[1] = tested on: tetrabenazine-induced sedation; assay: Mouse antidepressant (antitetrabenazine) test: prevention of tetrabenazine-induced ptosis and loss of exploratory activity; settings: for ED50: Mus musculus, po; for No. of Mice Blocked, EXPLORATORY ACTIVITY / No. of Mice Blocked, PTOSIS: 4 h after molindone
[2] = tested on: tryptamine-induced stereotypies and hind limb paralysis; assay: Tryptamine potentiation test; type: in vivo, mice; settings: 4 Hrs.
Method: […] […] (60 Mg/kg of tryptamine alone causes this syndrome but it lasts for less than a minute, usually only a few seconds.) The data were analyzed quantally and ED50's calculated.

[3] = 1 mg/kg oral (free base), 1 h, N=10
[4] = 1 mg/kg oral (free base), 2 h, N=10
[5] = 1 mg/kg oral (free base), 4 h, N=10
[6] = 3 mg/kg oral (free base), 1 h, N=10
[7] = 3 mg/kg oral (free base), 2 h, N=10
[8] = 3 mg/kg oral (free base), 4 h, N=10
[9] = 9 mg/kg oral (free base), 1 h, N=10
[10] = 9 mg/kg oral (free base), 2 h, N=10
[11] = 9 mg/kg oral (free base), 4 h, N=10
[12] = 13 mg/kg oral (free base), 1 h, N=20
[13] = 13 mg/kg oral (free base), 2 h, N=20
[14] = 13 mg/kg oral (free base), 3 h, N=20
[15] = 13 mg/kg oral (free base), 4 h, N=20
[16] = 13 mg/kg oral (free base), 6 h, N=20
[17] = 13 mg/kg oral (free base), 24 h, N=20
[18] = 27 mg/kg oral (free base), 1 h, N=10
[19] = 27 mg/kg oral (free base), 2 h, N=10
[20] = 27 mg/kg oral (free base), 4 h, N=10
[21] = 81 mg/kg oral (free base), 1 h, N=10
[22] = 81 mg/kg oral (free base), 2 h, N=10
[23] = 81 mg/kg oral (free base), 4 h, N=10
[24] = molindone 1.5 mg/kg oral alone, N=20
[25] = molindone 4.5 mg/kg oral alone, N=20
[26] = molindone 13.5 mg/kg oral alone, N=20
[27] = molindone 40.5 mg/kg oral alone, N=20
[28] = molindone alone, oral, 4 h, free base basis, N=20 (Table 2)

CCc1c(C)[nH]c2c1C(=O)C(CN1CCOCC1)CC2 (stereo not shown) [Molindone, 3-ethyl-6,7-dihydro-2-methyl-5-(morpholinomethyl)indol-4-(5H)-one]
MAO inhibition (in words) (mouse brain MAO; at the high concentration of 1×10^-3 M): virtually inactive | % INHIBITION (mouse brain MAO; final conc. 10^-3 m/l): 14% | % INHIBITION (mouse brain MAO; final conc. 10^-4 m/l): 1% | % INHIBITION (mouse brain MAO; final conc. 10^-5 m/l): 1% | % INHIBITION (mouse brain MAO; final conc. 10^-6 m/l): 0% | NUMBER OF MICE BLOCKED, EXPLORATORY ACTIVITY [1, 3]: 0 | NUMBER OF MICE BLOCKED, PTOSIS [1, 3]: 0 | NUMBER OF MICE BLOCKED, EXPLORATORY ACTIVITY [1, 4]: 0 | NUMBER OF MICE BLOCKED, PTOSIS [1, 4]: 0 | NUMBER OF MICE BLOCKED, EXPLORATORY ACTIVITY [1, 5]: 0 | NUMBER OF MICE BLOCKED, PTOSIS [1, 5]: 0 | NUMBER OF MICE BLOCKED, EXPLORATORY ACTIVITY [1, 6]: 0 | NUMBER OF MICE BLOCKED, PTOSIS [1, 6]: 0 | NUMBER OF MICE BLOCKED, EXPLORATORY ACTIVITY [1, 7]: 0 | NUMBER OF MICE BLOCKED, PTOSIS [1, 7]: 1 | NUMBER OF MICE BLOCKED, EXPLORATORY ACTIVITY [1, 8]: 0 | NUMBER OF MICE BLOCKED, PTOSIS [1, 8]: 0 | NUMBER OF MICE BLOCKED, EXPLORATORY ACTIVITY [1, 9]: 0 | NUMBER OF MICE BLOCKED, PTOSIS [1, 9]: 0 | NUMBER OF MICE BLOCKED, EXPLORATORY ACTIVITY [1, 10]: 3 | NUMBER OF MICE BLOCKED, PTOSIS [1, 10]: 5 | NUMBER OF MICE BLOCKED, EXPLORATORY ACTIVITY [1, 11]: 5 | NUMBER OF MICE BLOCKED, PTOSIS [1, 11]: 7 | NUMBER OF MICE BLOCKED, EXPLORATORY ACTIVITY [1, 12]: 0 | NUMBER OF MICE BLOCKED, PTOSIS [1, 12]: 0 | NUMBER OF MICE BLOCKED, EXPLORATORY ACTIVITY [1, 13]: 6 | NUMBER OF MICE BLOCKED, PTOSIS [1, 13]: 8 | NUMBER OF MICE BLOCKED, EXPLORATORY ACTIVITY [1, 14]: 16 | NUMBER OF MICE BLOCKED, PTOSIS [1, 14]: 19 | NUMBER OF MICE BLOCKED, EXPLORATORY ACTIVITY [1, 15]: 19 | NUMBER OF MICE BLOCKED, PTOSIS [1, 15]: 20 | NUMBER OF MICE BLOCKED, EXPLORATORY ACTIVITY [1, 16]: 20 | NUMBER OF MICE BLOCKED, PTOSIS [1, 16]: 20 | NUMBER OF MICE BLOCKED, EXPLORATORY ACTIVITY [1, 17]: 6 | NUMBER OF MICE BLOCKED, PTOSIS [1, 17]: 10 | NUMBER OF MICE BLOCKED, EXPLORATORY ACTIVITY [1, 18]: 0 | NUMBER OF MICE BLOCKED, PTOSIS [1, 18]: 0 | NUMBER OF MICE BLOCKED, EXPLORATORY ACTIVITY [1, 19]: 10 | NUMBER OF MICE BLOCKED, PTOSIS [1, 19]: 10 | NUMBER OF MICE BLOCKED, EXPLORATORY ACTIVITY [1, 20]: 10 | NUMBER OF MICE BLOCKED, PTOSIS [1, 20]: 10 | NUMBER OF MICE BLOCKED, EXPLORATORY ACTIVITY [1, 21]: 0 | NUMBER OF MICE BLOCKED, PTOSIS [1, 21]: 0 | NUMBER OF MICE BLOCKED, EXPLORATORY ACTIVITY [1, 22]: 10 | NUMBER OF MICE BLOCKED, PTOSIS [1, 22]: 10 | NUMBER OF MICE BLOCKED, EXPLORATORY ACTIVITY [1, 23]: 10 | NUMBER OF MICE BLOCKED, PTOSIS [1, 23]: 10 | ED50 ([1]; 1 h, read-out: ED50, EXPLORATORY ACTIVITY): > 81 mg/kg | ED50 ([1]; 1 h, read-out: ED50, PTOSIS): > 81 mg/kg | ED50 ([1]; 2 h, read-out: ED50, EXPLORATORY ACTIVITY): 11.2 mg/kg | ED50 ([1]; 2 h, read-out: ED50, PTOSIS): 8.5 mg/kg | ED50 ([1]; 4 h, read-out: ED50, EXPLORATORY ACTIVITY): 9 mg/kg | ED50 ([1]; 4 h, read-out: ED50, PTOSIS): 7.2 mg/kg | No. of Mice Blocked, EXPLORATORY ACTIVITY [1, 24]: 0 | No. of Mice Blocked, PTOSIS [1, 24]: 1 | No. of Mice Blocked, EXPLORATORY ACTIVITY [1, 25]: 2 | No. of Mice Blocked, PTOSIS [1, 25]: 5 | No. of Mice Blocked, EXPLORATORY ACTIVITY [1, 26]: 12 | No. of Mice Blocked, PTOSIS [1, 26]: 18 | No. of Mice Blocked, EXPLORATORY ACTIVITY [1, 27]: 20 | No. of Mice Blocked, PTOSIS [1, 27]: 20 | ED50, EXPLORATORY ACTIVITY, Molindone [1, 28]: 10.8 mg/kg | ED50, PTOSIS, Molindone [1, 28]: 6.4 mg/kg | Peak time (antitetrabenazine activity) ([1]; oral, mice): 4 to 6 h | HEAD TWITCH (mice responding) ([2]; 2.5 mg/kg p.o., N=10): 0 | HIND LIMB PARALYSIS (mice responding) ([2]; 2.5 mg/kg p.o., N=10): 0 | ED50, HIND LIMB PARALYSIS [2]: 8.6 mg/kg p.o.
